The source made the active and inactive calls. No cut-off for these calls is given here.
Tests used:
[1] = target: Interleukin-1 receptor-associated kinase 3 (Homo sapiens) (UniProt Q9Y616); assay: Inhibition of DNA-tagged human IRAK3 assessed as percent of control at 50000 nM by qPCR analysis relative to control; parameters: scale not given: the % may be the effect or the level left
[2] = target: Vascular endothelial growth factor receptor 3 (Homo sapiens) (UniProt P35916); assay: Inhibition of DNA-tagged human FLT4 assessed as percent of control at 50000 nM by qPCR analysis relative to control; parameters: scale not given: the % may be the effect or the level left
[3] = system: Receptor-type tyrosine-protein kinase FLT3 (Homo sapiens), P36888 [D835H]; assay: Inhibition of DNA-tagged human FLT3 D835H mutant assessed as percent of control at 50000 nM by qPCR analysis relative to control; parameters: scale not given: the % may be the effect or the level left
[4] = system: Fibroblast growth factor receptor 3 (Homo sapiens), P22607 [G697C]; assay: Inhibition of DNA-tagged human FGFR3 G697C mutant assessed as percent of control at 50000 nM by qPCR analysis relative to control; parameters: scale not given: the % may be the effect or the level left
[5] = target: Receptor tyrosine-protein kinase erbB-2 (Homo sapiens) (UniProt P04626); assay: Inhibition of DNA-tagged human ERBB2 assessed as percent of control at 50000 nM by qPCR analysis relative to control; parameters: scale not given: the % may be the effect or the level left
[6] = target: Ephrin type-B receptor 2 (Homo sapiens) (UniProt P29323); assay: Inhibition of DNA-tagged human EPHB2 assessed as percent of control at 50000 nM by qPCR analysis relative to control; parameters: scale not given: the % may be the effect or the level left
[7] = target: Eukaryotic translation initiation factor 2-alpha kinase 1 (Homo sapiens) (UniProt Q9BQI3); assay: Inhibition of DNA-tagged human EIF2AK1 assessed as percent of control at 50000 nM by qPCR analysis relative to control; parameters: scale not given: the % may be the effect or the level left
[8] = system: Epidermal growth factor receptor (Homo sapiens), P00533 [L861Q]; assay: Inhibition of DNA-tagged human EGFR L861Q mutant assessed as percent of control at 50000 nM by qPCR analysis relative to control; parameters: scale not given: the % may be the effect or the level left
[9] = system: Epidermal growth factor receptor (Homo sapiens), P00533 [G719S]; assay: Inhibition of DNA-tagged human EGFR G719S assessed as percent of control at 50000 nM by qPCR analysis relative to control; parameters: scale not given: the % may be the effect or the level left
[10] = target: Discoidin domain-containing receptor 2 (Homo sapiens) (UniProt Q16832); assay: Inhibition of DNA-tagged human DDR2 assessed as percent of control at 50000 nM by qPCR analysis relative to control; parameters: scale not given: the % may be the effect or the level left
[11] = target: Casein kinase I isoform gamma-1 (Homo sapiens) (UniProt Q9HCP0); assay: Inhibition of DNA-tagged human CSNK1G1 assessed as percent of control at 50000 nM by qPCR analysis relative to control; parameters: scale not given: the % may be the effect or the level left
[12] = target: Cyclin-dependent kinase 11A (Homo sapiens) (UniProt Q9UQ88); assay: Inhibition of DNA-tagged human CDC2L2 assessed as percent of control at 50000 nM by qPCR analysis relative to control; parameters: scale not given: the % may be the effect or the level left
[13] = target: Calcium/calmodulin-dependent protein kinase type 1G (Homo sapiens) (UniProt Q96NX5); assay: Inhibition of DNA-tagged human CAMK1G assessed as percent of control at 50000 nM by qPCR analysis relative to control; parameters: scale not given: the % may be the effect or the level left
[14] = target: Serine/threonine-protein kinase BRSK2 (Homo sapiens) (UniProt Q8IWQ3); assay: Inhibition of DNA-tagged human BRSK2 assessed as percent of control at 50000 nM by qPCR analysis relative to control; parameters: scale not given: the % may be the effect or the level left
[15] = target: Atypical kinase COQ8B, mitochondrial (Homo sapiens) (UniProt Q96D53); assay: Inhibition of DNA-tagged human ADCK4 assessed as percent of control at 50000 nM by qPCR analysis relative to control; parameters: scale not given: the % may be the effect or the level left
[16] = system: Tyrosine-protein kinase ABL1 (Homo sapiens), P00519 [Y253F]; assay: Inhibition of DNA-tagged phosphorylated human ABL1 Y253F mutant assessed as percent of control at 50000 nM by qPCR analysis relative to control; parameters: scale not given: the % may be the effect or the level left
[17] = target: AP2-associated protein kinase 1 (Homo sapiens) (UniProt Q2M2I8); assay: Inhibition of DNA-tagged human AAK1 assessed as percent of control at 50000 nM by qPCR analysis relative to control; parameters: scale not given: the % may be the effect or the level left
MV4-11 = assay: Cytotoxicity against human MV4-11 cells expressing FLT3-ITD at 0.1-100 uM assessed as decrease in cell viability relative to control; assay type: functional, cell-based
[18] = system: Mast/stem cell growth factor receptor Kit (Homo sapiens), P10721 [D816H]; assay: Inhibition of DNA-tagged human KIT D816H mutant assessed as percent of control at 50000 nM by qPCR analysis relative to control; parameters: scale not given: the % may be the effect or the level left
[19] = target: Serine/threonine-protein kinase 10 (Homo sapiens) (UniProt O94804); assay: Inhibition of DNA-tagged human LOK assessed as percent of control at 50000 nM by qPCR analysis relative to control; parameters: scale not given: the % may be the effect or the level left
[20] = target: Serine/threonine-protein kinase NLK (Homo sapiens) (UniProt Q9UBE8); assay: Inhibition of DNA-tagged human NLK assessed as percent of control at 50000 nM by qPCR analysis relative to control; parameters: scale not given: the % may be the effect or the level left
[21] = target: Phosphatidylinositol 4,5-bisphosphate 3-kinase catalytic subunit delta isoform (Homo sapiens) (UniProt O00329); assay: Inhibition of DNA-tagged human PIK3CD assessed as percent of control at 50000 nM by qPCR analysis relative to control; parameters: scale not given: the % may be the effect or the level left
[22] = target: Receptor-interacting serine/threonine-protein kinase 1 (Homo sapiens) (UniProt Q13546); assay: Inhibition of DNA-tagged human RIPK1 assessed as percent of control at 50000 nM by qPCR analysis relative to control; parameters: scale not given: the % may be the effect or the level left
[23] = target: Serine/threonine-protein kinase TBK1 (Homo sapiens) (UniProt Q9UHD2); assay: Inhibition of DNA-tagged human TBK1 assessed as percent of control at 50000 nM by qPCR analysis relative to control; parameters: scale not given: the % may be the effect or the level left
[24] = target: TGF-beta receptor type-1 (Homo sapiens) (UniProt P36897); assay: Inhibition of DNA-tagged human TGFBR1 assessed as percent of control at 50000 nM by qPCR analysis relative to control; parameters: scale not given: the % may be the effect or the level left
[25] = target: TGF-beta receptor type-2 (Homo sapiens) (UniProt P37173); assay: Inhibition of DNA-tagged human TGFBR2 assessed as percent of control at 50000 nM by qPCR analysis relative to control; parameters: scale not given: the % may be the effect or the level left
[26] = target: Activated CDC42 kinase 1 (Homo sapiens) (UniProt Q07912); assay: Inhibition of DNA-tagged human TNK2 assessed as percent of control at 50000 nM by qPCR analysis relative to control; parameters: scale not given: the % may be the effect or the level left
[27] = target: NT-3 growth factor receptor (Homo sapiens) (UniProt Q16288); assay: Inhibition of DNA-tagged human TRKC assessed as percent of control at 50000 nM by qPCR analysis relative to control; parameters: scale not given: the % may be the effect or the level left
[28] = target: Tyrosine-protein kinase receptor TYRO3 (Homo sapiens) (UniProt Q06418); assay: Inhibition of DNA-tagged human TYRO3 assessed as percent of control at 50000 nM by qPCR analysis relative to control; parameters: scale not given: the % may be the effect or the level left
[29] = target: Mitogen-activated protein kinase kinase kinase 19 (Homo sapiens) (UniProt Q56UN5); assay: Inhibition of DNA-tagged human YSK4 assessed as percent of control at 50000 nM by qPCR analysis relative to control; parameters: scale not given: the % may be the effect or the level left

Sequence of Cyclin-dependent kinase 11A (Homo sapiens) (Q9UQ88 whole entry): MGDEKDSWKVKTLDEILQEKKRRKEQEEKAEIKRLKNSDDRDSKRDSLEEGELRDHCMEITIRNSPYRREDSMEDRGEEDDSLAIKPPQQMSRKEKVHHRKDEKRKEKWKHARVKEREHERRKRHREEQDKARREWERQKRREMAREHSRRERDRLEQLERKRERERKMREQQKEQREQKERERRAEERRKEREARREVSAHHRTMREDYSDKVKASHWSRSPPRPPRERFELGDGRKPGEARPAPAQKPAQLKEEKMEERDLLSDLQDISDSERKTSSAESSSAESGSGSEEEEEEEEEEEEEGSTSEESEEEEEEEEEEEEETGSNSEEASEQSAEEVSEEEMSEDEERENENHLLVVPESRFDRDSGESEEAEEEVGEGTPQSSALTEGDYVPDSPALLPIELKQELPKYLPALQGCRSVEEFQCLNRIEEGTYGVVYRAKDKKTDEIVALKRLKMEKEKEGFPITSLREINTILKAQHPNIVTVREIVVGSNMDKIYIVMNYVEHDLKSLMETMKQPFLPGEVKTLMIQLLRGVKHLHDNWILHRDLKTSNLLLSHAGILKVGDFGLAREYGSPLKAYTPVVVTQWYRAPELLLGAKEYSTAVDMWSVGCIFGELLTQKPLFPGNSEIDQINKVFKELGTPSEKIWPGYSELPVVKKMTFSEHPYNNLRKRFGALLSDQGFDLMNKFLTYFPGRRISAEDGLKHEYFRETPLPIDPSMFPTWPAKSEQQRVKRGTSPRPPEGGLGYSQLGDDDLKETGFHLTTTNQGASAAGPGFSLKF
Sequence of Receptor-interacting serine/threonine-protein kinase 1 (Homo sapiens) (Q13546 whole entry): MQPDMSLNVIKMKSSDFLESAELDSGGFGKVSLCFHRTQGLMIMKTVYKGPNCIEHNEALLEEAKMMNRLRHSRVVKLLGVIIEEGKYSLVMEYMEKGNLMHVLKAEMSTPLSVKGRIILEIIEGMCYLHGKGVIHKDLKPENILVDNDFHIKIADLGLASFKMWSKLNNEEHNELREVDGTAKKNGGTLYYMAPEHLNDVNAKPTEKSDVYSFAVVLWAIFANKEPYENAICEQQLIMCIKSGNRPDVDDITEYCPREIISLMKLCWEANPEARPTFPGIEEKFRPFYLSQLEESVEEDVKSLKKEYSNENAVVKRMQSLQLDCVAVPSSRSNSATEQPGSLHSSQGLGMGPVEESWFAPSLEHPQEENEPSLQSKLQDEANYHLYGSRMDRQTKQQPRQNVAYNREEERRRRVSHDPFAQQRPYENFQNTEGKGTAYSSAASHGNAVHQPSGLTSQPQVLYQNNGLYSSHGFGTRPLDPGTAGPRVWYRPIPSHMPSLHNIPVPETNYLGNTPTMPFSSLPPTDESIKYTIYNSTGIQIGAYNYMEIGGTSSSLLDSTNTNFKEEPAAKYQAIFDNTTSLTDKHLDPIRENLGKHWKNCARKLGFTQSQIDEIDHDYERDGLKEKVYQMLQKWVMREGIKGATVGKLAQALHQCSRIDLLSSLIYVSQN
Sequence of AP2-associated protein kinase 1 (Homo sapiens) (Q2M2I8 whole entry, looked up): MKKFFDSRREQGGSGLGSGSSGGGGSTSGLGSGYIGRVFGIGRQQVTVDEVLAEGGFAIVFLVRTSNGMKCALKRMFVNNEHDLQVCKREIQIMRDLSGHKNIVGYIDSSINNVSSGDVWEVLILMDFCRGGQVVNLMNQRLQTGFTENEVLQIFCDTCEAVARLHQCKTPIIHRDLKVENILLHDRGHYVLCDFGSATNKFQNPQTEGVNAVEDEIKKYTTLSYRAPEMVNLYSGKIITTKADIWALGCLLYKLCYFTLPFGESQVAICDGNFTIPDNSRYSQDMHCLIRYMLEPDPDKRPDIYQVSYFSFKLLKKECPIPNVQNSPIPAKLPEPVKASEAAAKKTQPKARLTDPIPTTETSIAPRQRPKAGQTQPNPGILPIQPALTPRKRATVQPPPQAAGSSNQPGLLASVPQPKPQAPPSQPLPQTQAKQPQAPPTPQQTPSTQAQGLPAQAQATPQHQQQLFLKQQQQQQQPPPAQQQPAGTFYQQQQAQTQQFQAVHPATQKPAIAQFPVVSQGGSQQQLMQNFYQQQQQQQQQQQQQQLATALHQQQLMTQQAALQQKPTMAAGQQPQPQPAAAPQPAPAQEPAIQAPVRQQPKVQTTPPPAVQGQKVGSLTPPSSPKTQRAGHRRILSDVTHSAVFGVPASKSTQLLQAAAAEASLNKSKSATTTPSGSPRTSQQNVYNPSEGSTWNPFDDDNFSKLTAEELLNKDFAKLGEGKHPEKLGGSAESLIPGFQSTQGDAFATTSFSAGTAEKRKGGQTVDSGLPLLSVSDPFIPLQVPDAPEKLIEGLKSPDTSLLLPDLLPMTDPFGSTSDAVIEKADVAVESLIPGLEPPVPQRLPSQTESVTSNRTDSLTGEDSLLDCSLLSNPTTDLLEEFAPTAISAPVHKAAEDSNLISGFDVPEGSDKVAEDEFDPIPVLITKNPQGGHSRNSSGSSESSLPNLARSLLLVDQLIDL
Sequence of Ephrin type-B receptor 2 (Homo sapiens) (P29323 whole entry): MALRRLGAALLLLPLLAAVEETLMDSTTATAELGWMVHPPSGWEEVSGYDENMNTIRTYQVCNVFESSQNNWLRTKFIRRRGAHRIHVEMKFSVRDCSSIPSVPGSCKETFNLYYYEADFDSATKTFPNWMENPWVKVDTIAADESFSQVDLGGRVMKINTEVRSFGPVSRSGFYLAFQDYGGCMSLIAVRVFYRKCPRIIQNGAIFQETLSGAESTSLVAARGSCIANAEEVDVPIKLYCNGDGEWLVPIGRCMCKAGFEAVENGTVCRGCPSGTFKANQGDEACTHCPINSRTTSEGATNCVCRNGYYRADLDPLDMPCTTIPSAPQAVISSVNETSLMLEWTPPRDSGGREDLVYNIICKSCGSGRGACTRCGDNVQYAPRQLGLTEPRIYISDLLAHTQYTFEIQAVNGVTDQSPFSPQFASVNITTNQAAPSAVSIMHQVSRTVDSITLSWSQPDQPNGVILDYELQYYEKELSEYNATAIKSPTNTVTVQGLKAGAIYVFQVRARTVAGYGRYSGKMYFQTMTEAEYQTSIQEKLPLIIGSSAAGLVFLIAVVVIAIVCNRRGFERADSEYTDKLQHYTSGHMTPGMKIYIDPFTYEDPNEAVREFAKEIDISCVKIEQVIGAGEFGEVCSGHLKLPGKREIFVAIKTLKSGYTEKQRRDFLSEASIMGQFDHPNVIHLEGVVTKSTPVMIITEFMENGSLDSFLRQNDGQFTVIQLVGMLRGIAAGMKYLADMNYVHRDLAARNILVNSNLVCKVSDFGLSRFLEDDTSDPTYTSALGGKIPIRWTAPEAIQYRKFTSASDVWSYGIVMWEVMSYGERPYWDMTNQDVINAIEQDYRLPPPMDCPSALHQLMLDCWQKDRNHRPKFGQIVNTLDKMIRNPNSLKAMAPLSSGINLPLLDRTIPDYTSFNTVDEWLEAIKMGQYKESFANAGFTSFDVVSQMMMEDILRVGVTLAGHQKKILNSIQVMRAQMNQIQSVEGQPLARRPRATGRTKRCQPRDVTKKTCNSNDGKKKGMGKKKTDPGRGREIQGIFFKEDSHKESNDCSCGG
Sequence of TGF-beta receptor type-2 (Homo sapiens) (P37173 whole entry): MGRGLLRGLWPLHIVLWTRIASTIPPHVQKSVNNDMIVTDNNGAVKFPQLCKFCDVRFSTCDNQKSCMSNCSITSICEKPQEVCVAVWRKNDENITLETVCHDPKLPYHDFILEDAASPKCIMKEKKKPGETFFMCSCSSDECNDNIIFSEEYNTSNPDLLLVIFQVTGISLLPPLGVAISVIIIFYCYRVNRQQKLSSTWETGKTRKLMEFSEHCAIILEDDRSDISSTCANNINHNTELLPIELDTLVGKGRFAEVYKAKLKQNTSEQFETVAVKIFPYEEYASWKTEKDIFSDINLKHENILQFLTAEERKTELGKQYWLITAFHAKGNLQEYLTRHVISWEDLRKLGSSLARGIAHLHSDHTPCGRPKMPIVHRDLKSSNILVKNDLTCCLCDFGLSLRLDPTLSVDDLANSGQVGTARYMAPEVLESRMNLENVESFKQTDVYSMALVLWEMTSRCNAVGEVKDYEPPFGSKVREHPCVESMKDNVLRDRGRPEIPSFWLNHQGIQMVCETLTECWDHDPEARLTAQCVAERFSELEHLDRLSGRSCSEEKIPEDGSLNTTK
Sequence of Eukaryotic translation initiation factor 2-alpha kinase 1 (Homo sapiens) (Q9BQI3 whole entry): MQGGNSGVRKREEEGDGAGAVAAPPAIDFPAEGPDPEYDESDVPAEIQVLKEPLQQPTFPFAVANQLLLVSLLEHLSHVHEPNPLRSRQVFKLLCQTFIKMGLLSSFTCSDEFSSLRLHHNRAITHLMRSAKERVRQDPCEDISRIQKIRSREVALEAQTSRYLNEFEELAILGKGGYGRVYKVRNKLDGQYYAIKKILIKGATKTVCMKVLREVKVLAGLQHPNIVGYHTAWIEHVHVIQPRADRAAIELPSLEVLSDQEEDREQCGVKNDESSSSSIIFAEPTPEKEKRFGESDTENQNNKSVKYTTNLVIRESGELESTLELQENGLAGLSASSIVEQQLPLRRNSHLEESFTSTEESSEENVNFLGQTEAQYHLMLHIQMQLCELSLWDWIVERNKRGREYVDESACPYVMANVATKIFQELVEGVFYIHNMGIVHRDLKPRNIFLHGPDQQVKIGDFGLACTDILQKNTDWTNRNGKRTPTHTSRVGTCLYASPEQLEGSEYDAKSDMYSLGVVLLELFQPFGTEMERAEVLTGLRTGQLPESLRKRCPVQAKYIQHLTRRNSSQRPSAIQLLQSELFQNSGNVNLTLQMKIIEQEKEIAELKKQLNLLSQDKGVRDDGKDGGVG

Work on `CN1C(=O)/C(=C2/C(=O)Nc3ccccc32)c2ccccc21` yielded an Activity [1] of 90%, an Activity [2] of 100% and an Activity [3] of 100%. The Activity [4] was 100%, the Activity [5] was 100% and the Activity [6] was 100%. For the same molecule, the Activity [7] was 64%, the Activity [8] was 83% and the Activity [9] was 94%. It also gave an Activity [10] of 86%, an Activity [11] of 95% and an Activity [12] of 100%. The Activity [13] was 85%, the Activity [14] was 100% and the Activity [15] was 78%. The Activity [16] was 100%, the Activity [17] was 91% and the Activity (MV4-11) was “Active”. For the same molecule, the Activity [18] was 75%, the Activity [19] was 100% and the Activity [20] was 100%. It also gave an Activity [21] of 95%, an Activity [22] of 95% and an Activity [23] of 50%. The Activity [24] was 100%, the Activity [25] was 94% and the Activity [26] was 93%. For the same molecule, the Activity [27] was 66%, the Activity [28] was 77% and the Activity [29] was 91%.

— ChEMBL document CHEMBL4804284
